In the NIST ThermoML archive (doi:10.1016/j.fluid.2015.04.019) one finds mass density data, which are given here for two compounds.

The structures appear in SMILES notation. Numbers after ± are expanded uncertainties.

For this data set the following is noted: 101.33 kPa, Liquid, Vibrating tube method.

With `CCCCOCCO` [2-butoxyethan-1-ol], the mass density runs as follows: (293.15 K) 900.64 ± 0.15 kg/m3; (313.15 K) 883.8 ± 0.15 kg/m3.
With `CCCCCCCC` [octane], the mass density (293.15 K) is recorded as 702.64 ± 0.32 kg/m3 and the mass density (313.15 K) came out at 686.39 ± 0.32 kg/m3.
